Assay results taken from patent US12024506B2, “Compounds” (Oxford University Innovation Limited, priority 2018, dated 2024).

System: HT1080 cells
Test: Cell viability assay 2 (CellTiterGlo), HT1080 cells
Format: cell-based
Settings: Homo sapiens, HT-1080, cell line printed as HCT1080, 48 or 72 h
Experimental: Cancer cell lines were in seeded in ViewPlates-96 microplates (PerkinElmer). HT1080 cells at 7500 cells per well and cultured in DMEM, high glucose, GlutaMAX media containing 10% FBS at 37° C. in 5% CO2 atmosphere. Cells were cultured overnight and the compounds (dissolved in DMSO and diluted to 0.2% DMSO) were added to the cells at concentrations ranging from 0 to 20 μM. The cells were incubated under standard culture conditions for either 24, 48 or 72 h. Cell viability was as quantitated using the CellTiterGlo Luminescent Cell Viability Assay (Promega) according to the manufacturer's instructions to measure ATP generated by metabolically active cells. Luminescent signals were measured using an Envision 2103 Multilabel Microplate Reader (PerkinElmer). The luminescence signals obtained from the compound-treated cells were normalized against the signal for DMSO-only treated cells.

- IC50: 10 µM
SMILES: COc1nc(-c2cccc3c2OCCO3)ccc1Nc1ccc(CN(C)C)cc1 [compound 56, [6-(2,3-Dihydro-benzo[1,4]dioxin-5-yl)-2-methoxy-pyridin-3-yl]-(4-dimethylaminomethyl-phenyl)-amine]
